In general, inhibition refers to the relative decrease from the control value, in per cent.

3 molecules from patent publication US20220009920A1 (GB005, Inc., priority 2020, published 2022) can be followed below.

Common to all, as to assay: Large panel kinase profiling
Common to all, as to assay type: biochemical
Common to all, as to settings: 1 μM test article, 1 mM ATP

One test addresses T1, TEC (Homo sapiens, UniProt P42680).
T1 construct: AssayQuant Technologies, Inc. (contract laboratory that ran the panel)
T1 sequence (P42680 1-631): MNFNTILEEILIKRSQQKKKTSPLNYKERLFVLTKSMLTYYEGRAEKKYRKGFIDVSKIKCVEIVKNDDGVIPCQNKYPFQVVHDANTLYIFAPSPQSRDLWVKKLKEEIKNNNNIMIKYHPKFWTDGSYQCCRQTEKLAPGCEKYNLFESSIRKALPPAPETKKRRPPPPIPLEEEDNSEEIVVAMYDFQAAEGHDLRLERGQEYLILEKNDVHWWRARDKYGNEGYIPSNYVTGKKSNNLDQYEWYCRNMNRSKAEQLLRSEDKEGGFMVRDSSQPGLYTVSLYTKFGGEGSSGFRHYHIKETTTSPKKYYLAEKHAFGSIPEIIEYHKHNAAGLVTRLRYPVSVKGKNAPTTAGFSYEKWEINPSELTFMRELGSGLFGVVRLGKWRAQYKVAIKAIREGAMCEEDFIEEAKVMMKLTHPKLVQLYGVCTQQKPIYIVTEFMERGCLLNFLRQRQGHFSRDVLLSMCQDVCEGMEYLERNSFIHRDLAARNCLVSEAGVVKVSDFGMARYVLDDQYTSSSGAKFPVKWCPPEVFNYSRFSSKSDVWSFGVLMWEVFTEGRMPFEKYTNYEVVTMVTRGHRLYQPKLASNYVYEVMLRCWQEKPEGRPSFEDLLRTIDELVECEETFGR
In short, it runs like this:
(§1)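 Fluorescence intensity (Ex 360 nm, Em 485 nm) was monitored continuously, once per minute, in PhosphoSens CSox-Sensor kinase reactions held at 30° C. Compound was present at 1 μM and ATP at 1 mM.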

A further test deals with T2, MAPKAPK3/MK3 (Homo sapiens, UniProt Q16644).
T2 construct: AssayQuant Technologies, Inc. (service provider)
T2 sequence (Q16644 whole entry): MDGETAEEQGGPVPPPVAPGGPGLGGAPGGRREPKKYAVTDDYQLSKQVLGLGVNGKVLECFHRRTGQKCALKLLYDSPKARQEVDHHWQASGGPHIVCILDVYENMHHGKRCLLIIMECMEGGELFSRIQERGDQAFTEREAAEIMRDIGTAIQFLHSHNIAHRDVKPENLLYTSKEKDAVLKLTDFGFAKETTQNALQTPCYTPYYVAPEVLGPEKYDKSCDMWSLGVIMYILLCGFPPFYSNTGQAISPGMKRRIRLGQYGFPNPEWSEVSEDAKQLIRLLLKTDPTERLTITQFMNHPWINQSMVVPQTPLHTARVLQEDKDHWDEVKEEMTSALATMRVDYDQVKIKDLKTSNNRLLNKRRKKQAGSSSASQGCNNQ
In short, it runs like this: as §1

The target of a further test is T3, SYK (Homo sapiens, UniProt P43405).
T3 construct: AssayQuant Technologies, Inc. (contract assay)
In short, it runs like this: as §1

A further test deals with PAK1 (Homo sapiens, UniProt Q13153). In short, it runs like this:
as §1

A further test has as its target T4, TSSK2 (Homo sapiens, UniProt Q96PF2).
T4 construct: AssayQuant Technologies, Inc. (contract laboratory that ran the panel)
T4 sequence (Q96PF2 1-358): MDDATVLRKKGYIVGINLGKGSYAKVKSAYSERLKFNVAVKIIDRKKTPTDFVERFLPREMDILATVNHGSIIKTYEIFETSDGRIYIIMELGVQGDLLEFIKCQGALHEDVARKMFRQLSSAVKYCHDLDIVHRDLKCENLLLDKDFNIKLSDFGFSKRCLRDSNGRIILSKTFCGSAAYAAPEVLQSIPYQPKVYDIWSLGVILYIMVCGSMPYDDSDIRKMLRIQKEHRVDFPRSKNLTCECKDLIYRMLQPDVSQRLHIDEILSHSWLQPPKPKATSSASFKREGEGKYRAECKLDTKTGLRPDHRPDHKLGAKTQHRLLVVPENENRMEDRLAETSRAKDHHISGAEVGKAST
The gist of the method: as §1

Another test addresses EIF2AK4/GCN2 (Homo sapiens, UniProt Q9P2K8). In short, it runs like this:
as §1

A further test addresses T5, EPHA8 (Homo sapiens, UniProt P29322).
T5 sequence (P29322 28-1005): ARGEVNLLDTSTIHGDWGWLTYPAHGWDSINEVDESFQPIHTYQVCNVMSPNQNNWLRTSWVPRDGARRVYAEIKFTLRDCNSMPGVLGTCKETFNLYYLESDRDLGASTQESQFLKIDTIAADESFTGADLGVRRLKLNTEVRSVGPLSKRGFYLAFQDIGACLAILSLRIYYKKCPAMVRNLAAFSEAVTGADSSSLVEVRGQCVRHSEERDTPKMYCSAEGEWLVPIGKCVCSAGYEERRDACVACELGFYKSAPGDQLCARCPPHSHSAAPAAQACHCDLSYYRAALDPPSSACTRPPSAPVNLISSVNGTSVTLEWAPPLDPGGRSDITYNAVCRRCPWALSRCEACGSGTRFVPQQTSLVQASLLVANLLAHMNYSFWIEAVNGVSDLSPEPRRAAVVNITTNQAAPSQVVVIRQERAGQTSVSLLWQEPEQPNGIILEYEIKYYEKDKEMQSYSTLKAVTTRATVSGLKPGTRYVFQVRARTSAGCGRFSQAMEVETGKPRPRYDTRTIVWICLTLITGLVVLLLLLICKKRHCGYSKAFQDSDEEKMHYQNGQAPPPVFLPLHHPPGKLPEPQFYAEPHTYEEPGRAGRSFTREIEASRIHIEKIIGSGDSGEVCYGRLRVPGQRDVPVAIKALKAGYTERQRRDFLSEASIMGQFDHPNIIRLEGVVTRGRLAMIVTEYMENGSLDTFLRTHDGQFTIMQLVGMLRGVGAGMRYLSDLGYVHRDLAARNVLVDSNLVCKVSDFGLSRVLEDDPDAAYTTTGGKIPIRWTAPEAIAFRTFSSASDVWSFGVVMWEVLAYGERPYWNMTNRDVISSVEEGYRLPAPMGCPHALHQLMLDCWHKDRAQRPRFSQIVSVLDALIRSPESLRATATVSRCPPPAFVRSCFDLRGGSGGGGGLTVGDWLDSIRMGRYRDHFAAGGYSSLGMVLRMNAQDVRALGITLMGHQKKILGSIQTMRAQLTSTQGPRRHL
The gist of the method:
as §1

In another test the target is AAK1 (Homo sapiens, UniProt Q2M2I8). The gist of the method:
as §1

The next test addresses T6, SLK (Homo sapiens, UniProt Q9H2G2).
T6 construct: AssayQuant Technologies, Inc. (contract assay)
The gist of the method: as §1

AAK1, sequence (Q2M2I8 whole entry): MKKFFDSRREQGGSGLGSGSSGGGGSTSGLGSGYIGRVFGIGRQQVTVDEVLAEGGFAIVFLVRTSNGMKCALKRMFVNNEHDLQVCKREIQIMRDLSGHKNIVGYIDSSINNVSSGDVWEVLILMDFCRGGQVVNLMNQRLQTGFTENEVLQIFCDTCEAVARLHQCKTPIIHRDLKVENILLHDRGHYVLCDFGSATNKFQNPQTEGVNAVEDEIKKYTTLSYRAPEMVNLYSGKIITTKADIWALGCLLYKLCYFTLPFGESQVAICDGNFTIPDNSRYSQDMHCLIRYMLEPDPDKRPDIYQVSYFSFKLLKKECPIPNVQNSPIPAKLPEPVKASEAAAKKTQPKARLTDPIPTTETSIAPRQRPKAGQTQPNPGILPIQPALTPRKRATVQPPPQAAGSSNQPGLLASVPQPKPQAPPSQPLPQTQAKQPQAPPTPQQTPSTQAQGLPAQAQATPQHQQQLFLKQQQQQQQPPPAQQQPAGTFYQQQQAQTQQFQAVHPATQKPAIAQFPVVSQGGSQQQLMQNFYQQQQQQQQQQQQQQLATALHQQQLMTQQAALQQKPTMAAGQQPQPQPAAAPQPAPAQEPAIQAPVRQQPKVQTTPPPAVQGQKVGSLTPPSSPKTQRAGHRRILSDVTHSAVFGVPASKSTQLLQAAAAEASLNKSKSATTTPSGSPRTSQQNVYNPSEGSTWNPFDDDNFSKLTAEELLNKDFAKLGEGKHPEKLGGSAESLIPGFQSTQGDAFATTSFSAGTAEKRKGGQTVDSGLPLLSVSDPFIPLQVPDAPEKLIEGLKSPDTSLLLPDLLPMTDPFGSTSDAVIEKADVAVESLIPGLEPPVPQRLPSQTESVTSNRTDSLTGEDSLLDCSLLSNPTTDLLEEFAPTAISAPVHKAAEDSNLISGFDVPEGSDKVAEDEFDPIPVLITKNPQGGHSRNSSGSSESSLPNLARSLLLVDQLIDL
PAK1, sequence (Q13153 whole entry): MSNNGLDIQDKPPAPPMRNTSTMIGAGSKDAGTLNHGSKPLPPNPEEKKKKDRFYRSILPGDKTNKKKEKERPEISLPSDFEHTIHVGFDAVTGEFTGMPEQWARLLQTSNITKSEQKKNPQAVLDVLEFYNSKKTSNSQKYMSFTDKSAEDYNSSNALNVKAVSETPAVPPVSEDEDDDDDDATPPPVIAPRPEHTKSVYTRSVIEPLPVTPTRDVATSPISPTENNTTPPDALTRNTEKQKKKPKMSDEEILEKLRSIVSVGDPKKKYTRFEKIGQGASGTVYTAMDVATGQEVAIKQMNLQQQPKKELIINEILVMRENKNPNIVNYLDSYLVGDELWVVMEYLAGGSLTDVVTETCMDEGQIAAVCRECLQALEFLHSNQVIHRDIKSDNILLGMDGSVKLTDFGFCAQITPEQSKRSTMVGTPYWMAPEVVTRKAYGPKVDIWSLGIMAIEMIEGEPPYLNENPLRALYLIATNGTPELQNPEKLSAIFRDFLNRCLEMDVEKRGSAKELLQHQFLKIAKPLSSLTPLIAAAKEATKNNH
EIF2AK4/GCN2, sequence (Q9P2K8 whole entry): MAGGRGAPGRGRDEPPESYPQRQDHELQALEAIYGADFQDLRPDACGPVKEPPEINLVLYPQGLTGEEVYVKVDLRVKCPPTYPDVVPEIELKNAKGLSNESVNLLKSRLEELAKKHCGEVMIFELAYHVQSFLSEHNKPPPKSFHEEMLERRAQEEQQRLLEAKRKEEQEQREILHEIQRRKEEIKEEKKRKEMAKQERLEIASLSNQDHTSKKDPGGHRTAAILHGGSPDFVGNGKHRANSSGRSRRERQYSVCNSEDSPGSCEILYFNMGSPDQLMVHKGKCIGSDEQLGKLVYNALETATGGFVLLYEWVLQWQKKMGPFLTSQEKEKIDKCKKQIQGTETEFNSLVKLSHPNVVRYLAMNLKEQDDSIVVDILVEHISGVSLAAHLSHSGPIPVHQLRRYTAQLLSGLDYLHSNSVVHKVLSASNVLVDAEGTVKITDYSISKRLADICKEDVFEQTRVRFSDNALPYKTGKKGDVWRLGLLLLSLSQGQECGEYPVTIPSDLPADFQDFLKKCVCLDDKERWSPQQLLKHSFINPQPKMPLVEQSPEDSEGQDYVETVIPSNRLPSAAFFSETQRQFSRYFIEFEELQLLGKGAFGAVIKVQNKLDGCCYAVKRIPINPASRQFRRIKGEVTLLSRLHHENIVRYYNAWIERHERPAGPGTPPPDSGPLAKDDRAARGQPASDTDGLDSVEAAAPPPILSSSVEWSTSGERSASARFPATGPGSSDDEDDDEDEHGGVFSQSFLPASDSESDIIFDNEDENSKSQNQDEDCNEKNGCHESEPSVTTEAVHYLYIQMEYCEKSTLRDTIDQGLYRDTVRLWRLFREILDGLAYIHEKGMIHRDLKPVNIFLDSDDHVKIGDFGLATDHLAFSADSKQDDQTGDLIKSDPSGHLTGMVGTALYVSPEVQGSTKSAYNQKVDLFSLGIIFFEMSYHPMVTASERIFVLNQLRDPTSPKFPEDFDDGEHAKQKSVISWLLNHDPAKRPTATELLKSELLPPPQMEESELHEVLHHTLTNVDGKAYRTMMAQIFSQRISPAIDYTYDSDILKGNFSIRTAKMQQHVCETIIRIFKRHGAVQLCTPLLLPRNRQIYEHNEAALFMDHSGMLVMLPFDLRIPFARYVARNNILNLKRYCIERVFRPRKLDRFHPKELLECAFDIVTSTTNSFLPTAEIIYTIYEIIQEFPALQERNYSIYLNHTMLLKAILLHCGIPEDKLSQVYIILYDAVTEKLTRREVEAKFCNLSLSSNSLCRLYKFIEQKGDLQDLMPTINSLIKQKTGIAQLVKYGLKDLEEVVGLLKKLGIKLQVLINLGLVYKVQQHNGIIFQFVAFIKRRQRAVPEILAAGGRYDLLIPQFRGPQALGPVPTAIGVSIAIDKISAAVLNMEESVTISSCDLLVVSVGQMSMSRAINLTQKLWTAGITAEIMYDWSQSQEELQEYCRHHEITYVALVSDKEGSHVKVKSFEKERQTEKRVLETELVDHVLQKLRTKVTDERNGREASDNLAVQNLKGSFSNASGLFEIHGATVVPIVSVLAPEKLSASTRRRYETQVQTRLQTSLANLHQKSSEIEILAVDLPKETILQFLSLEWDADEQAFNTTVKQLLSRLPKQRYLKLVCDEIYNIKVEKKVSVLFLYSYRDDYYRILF
T6 sequence (Q9H2G2 whole entry): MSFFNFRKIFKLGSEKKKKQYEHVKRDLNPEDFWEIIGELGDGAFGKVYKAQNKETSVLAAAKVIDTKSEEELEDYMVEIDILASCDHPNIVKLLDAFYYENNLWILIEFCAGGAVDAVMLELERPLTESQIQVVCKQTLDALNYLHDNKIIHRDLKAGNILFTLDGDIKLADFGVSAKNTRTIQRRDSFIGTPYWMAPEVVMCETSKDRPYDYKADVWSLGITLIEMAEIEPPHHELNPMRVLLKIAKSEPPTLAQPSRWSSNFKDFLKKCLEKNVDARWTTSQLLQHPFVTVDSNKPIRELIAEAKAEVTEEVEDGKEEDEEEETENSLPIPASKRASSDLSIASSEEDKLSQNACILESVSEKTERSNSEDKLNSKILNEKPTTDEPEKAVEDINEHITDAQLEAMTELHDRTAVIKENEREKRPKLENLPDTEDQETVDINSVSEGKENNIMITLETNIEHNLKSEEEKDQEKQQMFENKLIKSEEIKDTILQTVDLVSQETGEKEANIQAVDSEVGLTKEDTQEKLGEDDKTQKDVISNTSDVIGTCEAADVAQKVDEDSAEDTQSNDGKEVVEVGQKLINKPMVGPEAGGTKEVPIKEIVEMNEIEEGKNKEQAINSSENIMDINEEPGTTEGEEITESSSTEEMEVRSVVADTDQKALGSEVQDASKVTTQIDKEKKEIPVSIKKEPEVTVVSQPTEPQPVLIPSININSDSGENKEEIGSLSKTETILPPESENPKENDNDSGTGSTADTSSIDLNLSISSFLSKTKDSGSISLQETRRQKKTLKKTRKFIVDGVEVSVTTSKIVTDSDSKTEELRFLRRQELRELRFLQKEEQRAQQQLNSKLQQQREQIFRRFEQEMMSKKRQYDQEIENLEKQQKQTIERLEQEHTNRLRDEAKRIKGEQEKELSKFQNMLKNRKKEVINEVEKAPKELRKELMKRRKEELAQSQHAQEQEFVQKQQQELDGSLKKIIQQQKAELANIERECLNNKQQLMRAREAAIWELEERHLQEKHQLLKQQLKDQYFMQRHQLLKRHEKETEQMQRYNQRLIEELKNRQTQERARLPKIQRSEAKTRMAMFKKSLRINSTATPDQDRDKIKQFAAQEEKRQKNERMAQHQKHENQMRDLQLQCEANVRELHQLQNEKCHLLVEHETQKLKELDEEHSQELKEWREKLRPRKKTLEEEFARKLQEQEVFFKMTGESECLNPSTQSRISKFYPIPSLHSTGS

As for `C=CC(=O)N1CCCC(c2c(F)cc(C(N)=O)c3[nH]c4c(c23)CCCCC4)C1` (single isomer, unassigned) [Compound 5-6], the inhibition at 1 µM against TEC was 80.3%; on MAPKAPK3/MK3, 2.1%; on SYK it was 2.8%; on PAK1, 9.3%; at TSSK2, 10.2%; against EIF2AK4/GCN2, -20.4%. The inhibition at 1 µM was 10% at EPHA8, -20.3% at AAK1 and -3.7% against SLK.

On to `C=CC(=O)N1CCC[C@@H](c2c(F)cc(C(N)=O)c3[nH]c4c(c23)CC2(CC4)CC2)C1` [Compound 6-2, (S)-5-(1-acryloylpiperidin-3-yl)-6-fluoro-1,2,4,9-tetrahydrospiro[carbazole-3,1′-cyclopropane]-8-carboxamide], for which the inhibition at 1 µM at TEC was 84.5%; against MAPKAPK3/MK3, 1.5%; against SYK it was -5.3%; at PAK1 it was 11.4%; on TSSK2, 22.9%; at EIF2AK4/GCN2, 25.9%. In addition, the inhibition at 1 µM against EPHA8 was -15.3%; at AAK1, -15.7%; against SLK, 8.9%.

Turning to `C=CC(=O)N1CCC[C@@H](c2c(F)cc(C(N)=O)c3[nH]c4c(c23)CCC4)C1` [Compound 10-2, (S)-8-(1-acryloylpiperidin-3-yl)-7-fluoro-1,2,3,4-tetrahydrocyclo-penta[b]indole-5-carboxamide], the inhibition at 1 µM is 76.1% on TEC; -42.3% against MAPKAPK3/MK3; -14.1% at SYK; 6.8% against PAK1; 25.3% against TSSK2; 29.1% at EIF2AK4/GCN2. Besides, the inhibition at 1 µM was -19.1% on EPHA8, -14.3% on AAK1 and -48.3% against SLK.
